Results on one compound are retold here after patent publication US11162902B2, “Metasurfaces comprised of nanosphere oligomers with uniform narrow gap spacings, their method of fabrication and applications in sensing” (The Regents of the University of California, priority 2017, dated 2021).

≈ marks a conversion by molar mass, not a printed value.

The test system of experiment [1] is P. aeruginosa strain PA14. To be noted: cited from earlier work.
A further experiment has as its system P. aeruginosa biofilms. The experiment can be described thus: Antibiotic susceptibility measurements of surface-attached bacteria / biofilms (live/dead staining, dead cell fraction). It counts as cell-based, Pseudomonas aeruginosa. To be noted: 600 μg·mL^−1 carbenicillin in PBS for 3 h; growth 6, 10, 15, 24 h; FIG. 18E.

With `CC1(C)S[C@@H]2[C@H](NC(=O)C(C(=O)O)c3ccccc3)C(=O)N2[C@H]1C(=O)O` (some centres unmarked) [carbenicillin], in experiment [1], the minimum inhibitory concentration was 128 mg/L (≈ 338 µM). Besides, the “antibiotic susceptibility of surface-attached bacteria at different stages of biofilm growth” value in the experiment with P. aeruginosa biofilms is reported as “susceptibility decreased significantly with increasing growth time”.
